Test results as given in patent US20110021531A1, “OXAZOLE DERIVATIVES USEFUL AS INHIBITORS OF FAAH” (priority 2009, published 2011).

Legend:
[1] = molecular target: T1, human FAAH (Fatty Acid Amide Hydrolase) (Homo sapiens, UniProt O00519); assay: FAAH enzyme assay on lysate of CHO cells expressing human FAAH; format: biochemical
T1 construct: The full length FAAH was subcloned into the mammalian expression vector, pcDEF.neo
T1 sequence (O00519 1-579): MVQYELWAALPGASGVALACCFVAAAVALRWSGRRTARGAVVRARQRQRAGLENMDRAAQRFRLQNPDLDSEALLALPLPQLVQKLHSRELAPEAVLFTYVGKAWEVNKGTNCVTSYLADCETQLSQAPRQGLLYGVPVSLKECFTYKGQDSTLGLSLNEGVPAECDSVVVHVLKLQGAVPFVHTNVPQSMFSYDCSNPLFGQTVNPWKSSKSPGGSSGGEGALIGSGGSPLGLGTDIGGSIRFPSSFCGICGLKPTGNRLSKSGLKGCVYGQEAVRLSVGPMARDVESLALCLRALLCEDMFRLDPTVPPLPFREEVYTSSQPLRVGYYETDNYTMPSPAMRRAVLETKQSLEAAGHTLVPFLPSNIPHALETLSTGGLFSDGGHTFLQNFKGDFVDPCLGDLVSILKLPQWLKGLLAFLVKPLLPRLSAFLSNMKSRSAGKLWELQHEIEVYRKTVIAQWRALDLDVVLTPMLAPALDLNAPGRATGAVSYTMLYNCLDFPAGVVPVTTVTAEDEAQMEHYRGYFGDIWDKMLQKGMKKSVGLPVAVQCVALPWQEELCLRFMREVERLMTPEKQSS
Text: (§1) To assist in assay development stable cell lines for human, murine and rat full length FAAH were developed. Human FAAH cDNA (Accession No: NM_001441.1) was purchased from Origene (Rockville, Md.). The full length FAAH was subcloned into the mammalian expression vector, pcDEF.neo, using XbaI and EcoRI restriction sites and used for stable cell line generation.
CHO cells expressing FAAH were used to prepare either crude cell lysate or microsome fractions. To harvest cells, tissue culture media was decanted, the monolayer washed three times with Ca^++Mg^++ free PBS and cells recovered after […] in enzyme free dissociation media (Millipore Corp, Billerica, Mass.). Cells were collected by centrifuging at 2000 rpm for 15 min. and the cell pellet re-suspended with 50 mM HEPES (pH 7.4) containing 1 mM EDTA and the protease inhibitors aprotinin (1 mg/ml) and leupeptin (100 μM). The suspension was sonicated at 4° C. and the cell lysate recovered after centrifuging at 12,000×g (14,600 rpm, SS34 rotor) for 20 min at 4° C. to form a crude pellet of cell debris, nuclei, peroxisomes, lysosomes, and mitochondria; the supernatant or cell lysate was used for FAAH enzyme assay. In some cases, microsomes fractions enriched in FAAH were prepared by centrifuging the cell lysate further at 27,000 rpm (100,000×g) in SW28 rotor for 50 minutes at 4° C. The pellet containing FAAH-enriched microsomes was re-suspend in 50 mM HEPES, (pH 7.4) 1 mM EDTA, and any remaining DNA sheared by passage of material through a 23 gauge needle and aliquots of enzyme were store at −80° C. prior to use.
(§2) (American Radiolabeled Chemicals; 1 mCi/ml) with FAAH (Life Sciences (1995), 56, 1999-2005 and Journal of Pharmacology and Experimented Therapeutics (1997), 283, 729-734), Analytical. Biochemistry (2003), 318, 270-5. In addition, routine assays were performed monitoring hydrolysis of arachidonyl-7-amino-4-methylcoumarin amide (AAMCA) by following increase in fluorescence upon release of 7-amino 4-methyl coumarin (λEX=355 nm, (λEM=460 nm). Analytical. Biochemistry (2005). 343, 143-51
(§3) Assays are performed on either cell lysate or microsome fractions prepared as described or in whole cell format employing either the fluorescent substrate AAMCA (Cayman chemical, Ann Arbor, Mich.,) or ^3H-anandmaide ([ETHANOLAMINE-1-3H]American Radiolabeled Chemicals; 1 mCi/ml). The cell lysate or microsome assay is performed in Costar black wall, clear bottom plates by adding FAAH_CF10 (whole cell, cell lysate or microsome) in assay buffer (50 mM Phosphate, pH 8.0, 1 mM EDTA, 200 mM KCl, 0.2% glycerol, 0.1% fatty acid free BSA) to each well, followed by either DMSO or compound and allowed to incubate at 22-25° C. for fifteen minutes. AAMCA substrate was used to achieve a final concentration of 1 μM and reaction allowed to proceed at room temperature for 1-3 hours. Fluorescent release as a measure of FAAH activity was monitored by reading the plate in a CytoFluor Multiplate Reader (Ex: […]). Whole cell assay is conducted with cells harvested after rinsing tissue culture flasks three times with Ca^++Mg^++ free PBS, incubating for 10 min in Enzyme free dissociation media and centrifuging for 5 minutes at 1,000 rpm in table top centrifuge. Cells are resuspended in assay buffer at desired cell number in (4×10^4 cells/assay in 96-well format; 1×10^4 cells/assay in 384-well format) and assayed as described.
Alternatively, assays are performed using anandamide [ethanolamine 1-^3H] (specific activity of 10 Ci/mmol) diluted with cold anandamide to achieve a final assay concentration of 1 μM anandamide (˜50,000 cpm). Enzyme (CHO cell lysate, brain or liver homogenate) is incubated in assay buffer (50 mM Phosphate, pH 8.0, 1 mM EDTA, 200 mM KCl, 0.2% glycerol, 0.1% fatty acid free BSA) with inhibitor at 25° C. for 30 minutes. The reaction was terminated by addition of 2 volumes of chloroform:methanol (1:1) and mixed by vortexing. […]

[2] = molecular target: T1, human FAAH (Fatty Acid Amide Hydrolase); assay: FAAH whole cell assay, CHO cells expressing human FAAH; format: cell-based
Text: as §1
(§4) Murine (accession number NM_010173) and Rat FAAH (accession number NM_024132) was amplified by reverse transcriptase polymerase chain reaction (RT-PCR) from brain cDNA (BD Biosciences, San Jose, Calif.) using primers 1 and 2 or primers 1 and 3 respectively (see Table). The resulting PCR product was ligated into pCR4 TOPO and DNA sequence confirmed. The full length murine FAAH was subcloned into the mammalian expression vector, pcDEFneo using either EcoRI (murine) or KpnI and EcoRI (rat) restriction sites. Chinese hamster ovary cells (CHO) were transfected following manufacturers protocol (AMAXA). Forty eight hours post transfection, cells were trypsinized and transferred to 96 well plates in Iscove's DMEM media supplemented with 2 mM Glutamine, 10% fetal calf serum, 1 mg/ml geneticin and HT Supplement (0.1 mM sodium hypoxanthine, 0.016 mM thymidine) in order to isolate single clones. Following selection in geneticin, individual clones were selected and FAAH activity was assessed using a whole cell fluorescent anandamide assay, modified from Ramarao et al (2005). Following removal of tissue culture media cells were dislodged following addition of Cellstripper (Mediatech, Inc. Manassas, Va.) and transferred to 96 well black clear bottom assay plate, centrifuged at 1,000 rpm for 3 mins and media removed and replaced with assay buffer (50 mM Iris pH8.0, 1 mM EDTA, 0.1% fatty acid free BSA). The reaction was initiated by addition of fluorescent substrate, AMC Arachidonoyl Amide (Cayman Chemical, Ann Arbor, Mich.) to 1 μM and reaction allowed to proceed for 2 hours at room temperature. Release of fluorescence was monitored in a CytoFluor Multiplate Reader. Cells expressing the highest amount of FAAH activity were selected for study with FAAH inhibitors.
as §2, §3

[3] = molecular target: T2, rat FAAH (Fatty Acid Amide Hydrolase) (Rattus norvegicus, UniProt P97612); assay: FAAH whole cell assay, CHO cells expressing rat FAAH; format: cell-based
T2 sequence (P97612 1-579): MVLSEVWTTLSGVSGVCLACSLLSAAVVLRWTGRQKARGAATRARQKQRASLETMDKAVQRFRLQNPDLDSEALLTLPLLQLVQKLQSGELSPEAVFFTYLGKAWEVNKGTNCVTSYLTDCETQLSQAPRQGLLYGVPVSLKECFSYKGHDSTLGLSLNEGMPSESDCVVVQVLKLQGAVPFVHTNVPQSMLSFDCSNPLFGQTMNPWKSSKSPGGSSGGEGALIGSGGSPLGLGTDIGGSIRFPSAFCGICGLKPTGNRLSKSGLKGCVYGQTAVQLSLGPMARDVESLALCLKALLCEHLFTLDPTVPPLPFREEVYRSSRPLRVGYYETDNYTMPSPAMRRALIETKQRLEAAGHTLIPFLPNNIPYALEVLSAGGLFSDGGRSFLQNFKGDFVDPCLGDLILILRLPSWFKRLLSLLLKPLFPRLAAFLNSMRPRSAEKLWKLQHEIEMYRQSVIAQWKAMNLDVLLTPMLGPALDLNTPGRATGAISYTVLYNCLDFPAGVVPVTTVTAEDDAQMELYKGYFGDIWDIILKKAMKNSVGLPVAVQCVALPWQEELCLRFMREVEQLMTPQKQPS
Text: as §1, §4, §2, §3

IC50 [1] [µM] | IC50 [2] [µM] | IC50 [3] [µM] | SMILES
0.028 | 0.069 | 0.039 | CS(=O)(=O)c1ccc(-c2nc(-c3ccc(F)cc3)oc2Sc2ccc(Cl)cn2)cc1 [Ex 78, 5-Chloro-2-({2-(4-fluorophenyl)-4-[4-(methylsulfonyl)phenyl]-1,3-oxazol-5-yl}sulfanyl)pyridine]
0.038 | 0.078 | 0.018 | CC(C)(O)c1ccc(-c2nc(-c3ccc(F)cc3)oc2Sc2ccc(F)cn2)cn1 [Ex 19]
0.01 | 0.03 | 0.014 | Fc1ccc(-c2nc(-c3ccc(-c4ncon4)nc3)c(Sc3ccc(Cl)cn3)o2)cc1 [Ex 71, 5-Chloro-2-({2-(4-fluorophenyl)-4-[6-(1,2,4-oxadiazol-3-yl)pyridin-3-yl]-1,3-oxazol-5-yl}sulfanyl)pyridine]
